Reference: PubChem BioAssay (NCI)
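Method: 48-hour compound exposure of cells in 96-well plates, five concentrations, linear interpolation of endpoints. TGI: concentration producing complete growth inhibition.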

Experiments:
Experiment in all cases: DTP human tumour cell line panel, 48 h
786-0 renal = system: 786-0 renal
A498 renal = system: A498 renal
A549 NSCLC = system: A549 NSCLC
ACHN renal = system: ACHN renal
BT-549 breast = system: BT-549 breast
CAKI-1 renal = system: CAKI-1 renal
CCRF-CEM leukemia = system: CCRF-CEM leukemia
COLO 205 colon = system: COLO 205 colon
DU-145 prostate = system: DU-145 prostate
EKVX NSCLC = system: EKVX NSCLC
HCC-2998 colon = system: HCC-2998 colon
HCT-116 colon = system: HCT-116 colon
HCT-15 colon = system: HCT-15 colon
HL-60(TB) leukemia = system: HL-60(TB) leukemia
HOP-62 NSCLC = system: HOP-62 NSCLC
HOP-92 NSCLC = system: HOP-92 NSCLC
HS 578T breast = system: HS 578T breast
HT29 colon = system: HT29 colon
IGROV1 ovarian = system: IGROV1 ovarian
KM12 colon = system: KM12 colon
LOX IMVI melanoma = system: LOX IMVI melanoma
M14 melanoma = system: M14 melanoma
MALME-3M melanoma = system: MALME-3M melanoma
MCF7 breast = system: MCF7 breast
MDA-MB-231 breast = system: MDA-MB-231 breast
MDA-MB-435 = system: MDA-MB-435
MDA-N = system: MDA-N
MOLT-4 leukemia = system: MOLT-4 leukemia
NCI-H226 lung = system: NCI-H226 lung
NCI-H23 lung = system: NCI-H23 lung
NCI-H522 lung = system: NCI-H522 lung
NCI/ADR-RES ovarian = system: NCI/ADR-RES ovarian
OVCAR-3 ovarian = system: OVCAR-3 ovarian
OVCAR-4 ovarian = system: OVCAR-4 ovarian
OVCAR-5 ovarian = system: OVCAR-5 ovarian
OVCAR-8 ovarian = system: OVCAR-8 ovarian
PC-3 prostate = system: PC-3 prostate
RPMI-8226 leukemia = system: RPMI-8226 leukemia
RXF 393 renal = system: RXF 393 renal
SF-268 CNS = system: SF-268 CNS
SF-295 CNS = system: SF-295 CNS
SF-539 CNS = system: SF-539 CNS
SK-MEL-2 melanoma = system: SK-MEL-2 melanoma
SK-MEL-28 melanoma = system: SK-MEL-28 melanoma
SK-MEL-5 melanoma = system: SK-MEL-5 melanoma
SK-OV-3 ovarian = system: SK-OV-3 ovarian
SN12C renal = system: SN12C renal
SNB-19 CNS = system: SNB-19 CNS
SNB-75 CNS = system: SNB-75 CNS
SR leukemia = system: SR leukemia
SW-620 colon = system: SW-620 colon
T-47D breast = system: T-47D breast
TK-10 renal = system: TK-10 renal
U251 CNS = system: U251 CNS
UACC-257 melanoma = system: UACC-257 melanoma
UACC-62 melanoma = system: UACC-62 melanoma
UO-31 renal = system: UO-31 renal

**Q.** `COc1c2c(cc3c1OCO3)C13C=CC(OC)CC1N(CC3)C2` (configuration not stated) was tested. Which TGI (786-0 renal) did it give?
**A.** > 100 µM

**Q.** What about the TGI (A498 renal) of the same compound?
**A.** > 100 µM

**Q.** What about the TGI (A549 NSCLC) of the same compound?
**A.** > 100 µM

**Q.** And the TGI (ACHN renal)?
**A.** > 100 µM

**Q.** And the TGI (BT-549 breast)?
**A.** > 100 µM

**Q.** What about the TGI (CAKI-1 renal) of the same compound?
**A.** > 100 µM

**Q.** What about the TGI (CCRF-CEM leukemia) of the same compound?
**A.** > 100 µM

**Q.** And the TGI (COLO 205 colon)?
**A.** > 100 µM

**Q.** And the TGI (DU-145 prostate)?
**A.** > 100 µM

**Q.** What about the TGI (EKVX NSCLC) of the same compound?
**A.** > 100 µM

**Q.** And the TGI (HCC-2998 colon)?
**A.** > 100 µM

**Q.** And the TGI (HCT-116 colon)?
**A.** > 100 µM

**Q.** And the TGI (HCT-15 colon)?
**A.** > 100 µM

**Q.** And the TGI (HL-60(TB) leukemia)?
**A.** > 100 µM

**Q.** What about the TGI (HOP-62 NSCLC) of the same compound?
**A.** > 100 µM

**Q.** And the TGI (HOP-92 NSCLC)?
**A.** > 100 µM

**Q.** And the TGI (HS 578T breast)?
**A.** > 100 µM

**Q.** What about the TGI (HT29 colon) of the same compound?
**A.** > 100 µM

**Q.** What about the TGI (IGROV1 ovarian) of the same compound?
**A.** > 100 µM

**Q.** What about the TGI (KM12 colon) of the same compound?
**A.** > 100 µM

**Q.** What about the TGI (LOX IMVI melanoma) of the same compound?
**A.** > 100 µM

**Q.** What about the TGI (M14 melanoma) of the same compound?
**A.** > 100 µM

**Q.** What about the TGI (MALME-3M melanoma) of the same compound?
**A.** > 100 µM

**Q.** And the TGI (MCF7 breast)?
**A.** > 100 µM

**Q.** What about the TGI (MDA-MB-231 breast) of the same compound?
**A.** > 100 µM

**Q.** What about the TGI (MDA-MB-435) of the same compound?
**A.** > 100 µM

**Q.** And the TGI (MDA-N)?
**A.** > 100 µM

**Q.** And the TGI (MOLT-4 leukemia)?
**A.** > 100 µM

**Q.** What about the TGI (NCI-H226 lung) of the same compound?
**A.** > 100 µM

**Q.** And the TGI (NCI-H23 lung)?
**A.** > 100 µM

**Q.** And the TGI (NCI-H522 lung)?
**A.** > 100 µM

**Q.** And the TGI (NCI/ADR-RES ovarian)?
**A.** > 100 µM

**Q.** What about the TGI (OVCAR-3 ovarian) of the same compound?
**A.** > 100 µM

**Q.** And the TGI (OVCAR-4 ovarian)?
**A.** > 100 µM

**Q.** And the TGI (OVCAR-5 ovarian)?
**A.** > 100 µM

**Q.** What about the TGI (OVCAR-8 ovarian) of the same compound?
**A.** > 100 µM

**Q.** And the TGI (PC-3 prostate)?
**A.** > 100 µM

**Q.** And the TGI (RPMI-8226 leukemia)?
**A.** > 100 µM

**Q.** And the TGI (RXF 393 renal)?
**A.** > 100 µM

**Q.** What about the TGI (SF-268 CNS) of the same compound?
**A.** > 100 µM

**Q.** And the TGI (SF-295 CNS)?
**A.** > 100 µM

**Q.** And the TGI (SF-539 CNS)?
**A.** > 100 µM

**Q.** And the TGI (SK-MEL-2 melanoma)?
**A.** > 100 µM

**Q.** And the TGI (SK-MEL-28 melanoma)?
**A.** > 100 µM

**Q.** What about the TGI (SK-MEL-5 melanoma) of the same compound?
**A.** > 100 µM

**Q.** And the TGI (SK-OV-3 ovarian)?
**A.** > 100 µM

**Q.** And the TGI (SN12C renal)?
**A.** > 100 µM

**Q.** What about the TGI (SNB-19 CNS) of the same compound?
**A.** > 100 µM

**Q.** What about the TGI (SNB-75 CNS) of the same compound?
**A.** > 100 µM

**Q.** What about the TGI (SR leukemia) of the same compound?
**A.** 22.2 µM

**Q.** And the TGI (SW-620 colon)?
**A.** > 100 µM

**Q.** And the TGI (T-47D breast)?
**A.** > 100 µM

**Q.** And the TGI (TK-10 renal)?
**A.** > 100 µM

**Q.** What about the TGI (U251 CNS) of the same compound?
**A.** > 100 µM

**Q.** What about the TGI (UACC-257 melanoma) of the same compound?
**A.** > 100 µM

**Q.** And the TGI (UACC-62 melanoma)?
**A.** > 100 µM

**Q.** What about the TGI (UO-31 renal) of the same compound?
**A.** > 100 µM
